In paper PMC6268262, “Improved Antileishmanial Activity of Dppz through Complexation with Antimony(III) and Bismuth(III): Investigation of the Role of the Metal” (Molecules, 2012):
Where two headings read alike, the source gives them in different places.

How the values were obtained:
[1] = tested on: L. amazonensis (WT) promastigotes, strain BA199; assay: Antileishmanial activity assay, promastigote growth, wild-type strain; type: cell-based, Leishmania amazonensis; settings: 72 h, 25 °C
Protocol: (§1) Leishmania (Leishmania) amazonensis (strain MHOM/BR/1989/BA199) and Leishmania (Leishmania)infantum chagasi (strain MCAN/BR/2002/BH400) promastigotes were maintained in minimum essential culture medium (α-MEM) (Gibco, Invitrogen, Grand Island, NY, USA) supplemented with 10% (v/v) heat inactivated fetal calf serum (Cultilab, Campinas, SP, Brazil), […] kanamycin, […] ampicillin, 2 mM L-glutamine, 5 mg/mL hemin, 5 mM biopterin, (Sigma-Aldrich), pH 7.0 and incubated at 25 °C. L. amazonensis and L. infantum chagasi were selected for Sb(III) resistance as previously decribed. The Sb(III)-resistant mutants L. amazonensis BA199Sb2700.2 and L. infantum chagasi BH400Sb2700.2 were selected in 25 cm^2 flasks containing 5 mL of α-MEM in the presence of increasing Sb(III) concentrations up to 2,700 μM.
(§2) Complexes 1 and 2 were evaluated in vitro for their activity against both Sb(III)-sensitive and -resistant Leishmania parasites. Log-phase L. amazonensis and L. infantum chagasi promastigotes (1 × 10^6 parasites/mL) were seeded in 24-wells cell culture plates with 1.5 mL of α-MEM, incubated under shaking at 25 °C during 72 h in the presence of several concentrations of complex 1 or 2. Controls were performed using cultures in the presence of potassium antimonyl tartrate, SbCl3, BiCl3 and dppz itself. Non-treated parasites were established for growth comparison. Stock solutions of dppz, its complexes, SbCl3 and BiCl3 were dissolved in DMSO (5 M) and diluted in α-MEM cell culture medium to obtain the range of tested concentrations. […] For drug susceptibility assay, Leishmania growth curves were constructed by measuring absorbance at 600 nm. […] All experiments were done at least three times as independent experiments performed in triplicate.
(§3) The IC50 and CC50 values were calculated by nonlinear regression using the software GraphPad Prism 5.0. The acceptable level of significance was 95% (p < 0.05).

[2] = tested on: L. infantum chagasi (WT) promastigotes, strain BH400; assay: Antileishmanial activity assay, promastigote growth (absorbance 600 nm), wild-type strain; type: cell-based, Leishmania infantum chagasi; settings: 72 h, 25 °C
Protocol: as §1, §2, §3

[3] = tested on: mouse peritoneal macrophages; assay: Cytotoxicity assay against peritoneal macrophages (MTT); type: cell-based
Protocol: (§4) Macrophages were obtained by lavage of peritoneal cavity of mice with 10 mL cold RPMI without FBS. After washing, the cell suspension (4.0 × 10^6/mL) was seeded (0.1 mL) in 96-well flat bottom plates. Macrophages were allowed to adhere for 2 h and non-adherent cells were removed by washing with RPMI. Then, the studied compounds were added to the wells at concentrations ranging from 1 to 20 μM and the cells were further cultured in RPMI-1640 supplemented with 10% FBS for 24 h at 37 °C in a humidified 5% CO2 atmosphere. Thereafter, the medium was replaced with fresh RPMI containing 0.5 mg/mL of MTT and the plates were incubated for additional 4 h. Supernatants were aspirated and the formazan crystals formed were dissolved in 100 μL of DMSO. After 15 min of incubation at room temperature, absorbance of solubilized MTT formazan product was spectrophotometrically measured at 570 nm.
as §3

[4] = as above; type: cell-based, mouse; settings: mouse peritoneal macrophages, MTT, 24 h
Protocol: as §4, §3

[5] = tested on: L. infantum chagasi (SbR) promastigotes, BH400Sb2700.2; assay: Antileishmanial activity assay, promastigote growth, Sb-resistant mutant; type: cell-based, Leishmania infantum chagasi; settings: 72 h, read-out: IC50 (μM) ± SEM
Protocol: as §1, §2, §3

[6] = tested on: L. amazonensis (SbR) promastigotes, BA199Sb2700.2; assay: as above; type: cell-based, Leishmania amazonensis; settings: 72 h, read-out: IC50 (μM) ± SEM
Protocol: as §1, §2, §3

[7] = tested on: Leishmania promastigotes; assay: microbe, parasite or virus in culture; type: cell-based, Leishmania infantum chagasi and Leishmania amazonensis; settings: for concentration in whose presence Sb-resistant lines failed to grow: L. infantum chagasi BH400 Sb2700.2 and L. amazonensis BA199 Sb2700.2
Protocol: as §1, §2

[8] = n-Octanol/water partition coefficient, Shake-Flask method; type: physicochemical; settings: phosphate buffer pH 6.8
Protocol: Then, three different partition system were prepared by adding these solutions to water-saturated octanol, in octanol/water volume ratios, 1:1, 1:2 and 2:1 in duplicate. The mixtures were vortexed for 10 min and then centrifuged for 5 min. The partition coefficients were determined using the absorbance of complexes 1 and 2. Calculated dppz log P value was obtained from the program ALOGPS 2.143 available on line.

[9] = Stability of the complexes by UV absorption spectroscopy; type: physicochemical; settings: 10 µmol·L^−1 in DMSO, DMSO-containing water and octanol, 0 to 4 h
Protocol: The stability of the complexes was checked by UV absorption spectroscopy. For this purpose, UV absorption spectra were registered at different time intervals (from 0 to 4 h) for dppz and complexes 1 and 2 at 10 µmol·L^−1 in DMSO, DMSO-containing water and octanol.

[10] = L. infantum chagasi (SbR) promastigotes, 25 °C
[11] = L. amazonensis (SbR) promastigotes, 25 °C
[12] = listed as dppzBiCl3, read-out: IC50 (μM) ± SEM
[13] = listed as dppzSbCl3, read-out: IC50 (μM) ± SEM

Compound: c1ccc2nc3c4cccnc4c4ncccc4c3nc2c1 [Dppz, dipyrido[3,2-a:2',3'-c]phenazine]
- IC50 ([1]; Leishmania amazonensis, read-out: IC50 (μM) ± SEM): > 2 µM
- IC50 ([2]; Leishmania infantum, read-out: IC50 (μM) ± SEM): 0.81 ± 0.04 µM
- SI: selective index ([3]; ratio between CC50 in murine macrophages and IC50 in L. infantum chagasi (WT)): 15.4
- CC50 at 24 h [4]: 12.5 µM
- IC50 ([5]; Leishmania infantum): 1.86 ± 0.08 µM
- IC50 ([6]; Leishmania amazonensis): 2 ± 0.05 µM
- IC50 ([7]; Leishmania, read-out: IC50 range over strains): 0.8 to 2 µM

Compound: [Cl][Sb]([Cl])[Cl] [SbCl3, antimony trichloride]
- IC50 ([1]; read-out: IC50 (μM) ± SEM): 362 ± 2 µM
- IC50 ([2]; read-out: IC50 (μM) ± SEM): 341 ± 2 µM
- IC50 [5, 10]: 462 ± 3 µM
- IC50 [6, 11]: 1503 ± 2 µM

Compound: [Bi(dppz)Cl3] [complex 2]
- IC50 [1, 12]: 1.07 ± 0.03 µM
- IC50 ([1]; read-out: IC50 (μM) ± SEM): ~1 µM
- IC50 [2, 12]: 0.59 ± 0.01 µM
- IC50 ([2]; read-out: IC50 (μM) ± SEM): ~0.6 µM
- log P (octanol/water partition coefficient) [8]: 0.98 ± 0.17
- UV absorption spectra as a function of time (stability) [9]: did not show significant changes as a function of time
- IC50 [5, 10]: 0.61 ± 0.02 µM
- IC50 [6, 11]: 1.12 ± 0.01 µM
- concentration in whose presence Sb-resistant lines failed to grow [7]: ≤ 1.12 µM

Compound: O=C([O-])[C@H]([O-])[C@@H]([O-])C(=O)[O-].O=C([O-])[C@H]([O-])[C@@H]([O-])C(=O)[O-].[K+].[K+].[Sb+3].[Sb+3] [TA, potassium antimonyl tartrate]
- IC50 ([1]; read-out: IC50 (μM) ± SEM): 83 ± 1 µM
- IC50 ([2]; read-out: IC50 (μM) ± SEM): 100 ± 3 µM
- IC50 [5, 10]: > 2700 µM
- IC50 [6, 11]: > 2700 µM

Compound: [Sb(dppz)Cl3] [complex 1]
- IC50 [1, 13]: 0.95 ± 0.02 µM
- IC50 ([1]; read-out: IC50 (μM) ± SEM): ~1 µM
- IC50 [2, 13]: 0.62 ± 0.01 µM
- IC50 ([2]; read-out: IC50 (μM) ± SEM): ~0.6 µM
- log P (octanol/water partition coefficient) [8]: 0.94 ± 0.24
- UV absorption spectra as a function of time (stability) [9]: did not show significant changes as a function of time
- CC50 ([3]; read-out: CC50: concentration of dppz which is cytotoxic against 50% of macrophages, mouse peritoneal macrophages, MTT, 24 h): 7 µM
- IC50 [5, 10]: 0.57 ± 0.01 µM
- IC50 [6, 11]: 0.92 ± 0.02 µM
- concentration in whose presence Sb-resistant lines failed to grow [7]: ≤ 1.12 µM

Compound: [Cl][Bi]([Cl])[Cl] [BiCl3, Bi(III) chloride]
- IC50 ([1]; read-out: IC50 (μM) ± SEM): 621 ± 2 µM
- IC50 ([2]; read-out: IC50 (μM) ± SEM): 563 ± 2 µM
- IC50 [5, 10]: > 500 µM
- IC50 [6, 11]: > 500 µM
